In ChEMBL document CHEMBL1156182 (Bioorg Med Chem Lett, 2010):
The source made the active and inactive calls. The calls are words filed in the database; no cut-off is given here.

How the values were obtained:
[1] = molecular target: T1, Peroxisome proliferator-activated receptor gamma (Homo sapiens, UniProt P37231)
T1 sequence (P37231 whole entry): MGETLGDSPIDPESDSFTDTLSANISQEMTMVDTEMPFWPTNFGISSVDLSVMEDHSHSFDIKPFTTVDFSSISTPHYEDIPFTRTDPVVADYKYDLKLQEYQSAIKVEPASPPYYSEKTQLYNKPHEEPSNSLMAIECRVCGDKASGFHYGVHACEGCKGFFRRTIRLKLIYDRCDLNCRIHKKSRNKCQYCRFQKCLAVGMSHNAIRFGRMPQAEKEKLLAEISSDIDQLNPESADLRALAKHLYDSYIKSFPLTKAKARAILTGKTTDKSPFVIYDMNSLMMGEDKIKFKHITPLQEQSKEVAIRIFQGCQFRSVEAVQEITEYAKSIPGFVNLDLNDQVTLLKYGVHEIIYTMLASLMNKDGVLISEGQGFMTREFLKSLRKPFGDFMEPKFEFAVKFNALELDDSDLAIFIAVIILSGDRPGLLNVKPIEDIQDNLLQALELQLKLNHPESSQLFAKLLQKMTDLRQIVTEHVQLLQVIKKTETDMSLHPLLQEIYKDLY

[2] = molecular target: T2, Peroxisome proliferator-activated receptor alpha (Homo sapiens) (UniProt Q07869); assay: Transactivation of human PPARalpha LBD expressed in african green monkey Cos7 cells co-transfected with fused GAL4-DBD at 10 uM after 14 hrs by Dual-Glo Luciferase reporter gene assay; format: cell-based; conditions: COS-7
T2 sequence (whole entry): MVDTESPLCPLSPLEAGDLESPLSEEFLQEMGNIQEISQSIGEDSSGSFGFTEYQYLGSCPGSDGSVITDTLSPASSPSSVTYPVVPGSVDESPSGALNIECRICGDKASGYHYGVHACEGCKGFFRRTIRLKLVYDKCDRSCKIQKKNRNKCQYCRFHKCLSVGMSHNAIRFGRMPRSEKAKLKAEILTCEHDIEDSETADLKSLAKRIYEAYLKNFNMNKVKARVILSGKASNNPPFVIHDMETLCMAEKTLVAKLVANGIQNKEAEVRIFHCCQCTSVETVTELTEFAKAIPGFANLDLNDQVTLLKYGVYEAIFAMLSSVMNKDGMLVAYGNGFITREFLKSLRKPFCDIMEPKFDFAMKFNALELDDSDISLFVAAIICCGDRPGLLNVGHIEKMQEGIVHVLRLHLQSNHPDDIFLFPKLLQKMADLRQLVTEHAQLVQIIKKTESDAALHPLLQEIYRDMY

[3] = molecular target: T3, Peroxisome proliferator-activated receptor gamma (Homo sapiens) (UniProt P37231); assay: Transactivation of human PPARgamma LBD expressed in african green monkey Cos7 cells co-transfected with fused GAL4-DBD at 10 uM after 14 hrs by Dual-Glo Luciferase reporter gene assay; format: cell-based; conditions: COS-7
T3 sequence (whole entry): T1 sequence (P37231 whole entry)

[4] = molecular target: T3, Peroxisome proliferator-activated receptor gamma (Homo sapiens); assay: Transactivation of human PPARgamma LBD expressed in african green monkey Cos7 cells co-transfected with fused GAL4-DBD after 14 hrs by Dual-Glo Luciferase reporter gene assay; conditions: COS-7
[5] = molecular target: T3, Peroxisome proliferator-activated receptor gamma (Homo sapiens); assay: Agonist activity at human PPARgamma LBD expressed in african green monkey Cos7 cells co-transfected with fused GAL4-DBD after 14 hrs by Dual-Glo Luciferase reporter gene transactivation assay; format: functional, cell-based; conditions: COS-7

Row | EC50 [1] | Activity [2] | Activity [3] | Activity [4] | Activity [5] | SMILES
1 | 6.9 µM | inactive | – | – | – | O=C(O)C(Sc1nc(Cl)cc(Nc2ccc3ccccc3c2)n1)c1cccc2ccccc12 (stereo not given)
2 | 3.6 µM | – | – | – | – | CCCCCCC(Sc1nc(Cl)cc(Nc2cccc(C)c2C)n1)C(=O)O (stereo not given)
3 | 7.3 µM | inactive | – | – | – | O=C(O)C(Sc1nc(Cl)cc(Nc2cccc(Cl)c2)n1)c1cccc2ccccc12 (stereo not given)
4 | 9 µM | inactive | – | – | – | O=C(O)C(Sc1nc(Cl)cc(Nc2ccc(Cl)cc2)n1)c1cccc2ccccc12 (stereo not given)
5 | 7.6 µM | inactive | – | – | – | CC(C)c1ccc(Nc2cc(Cl)nc(SC(C(=O)O)c3cccc4ccccc34)n2)cc1 (stereo not given)
6 | 13 µM | inactive | – | – | – | O=C(O)C(Sc1nc(Cl)cc(Nc2ccc(F)cc2)n1)c1cccc2ccccc12 (stereo not given)

More lines, now with the values behind:

Row | SMILES | EC50 [1] | Activity [2] | Activity [3] | Activity [4] | Activity [5]
7 | Cc1cccc(Nc2cc(Cl)nc(SC(C(=O)O)c3ccc(-c4ccccc4)c4ccccc34)n2)c1C (stereo not given) | 4.5 µM | inactive | – | – | –
8 | Cc1ccc(Nc2cc(Cl)nc(SC(C(=O)O)c3cccc4ccccc34)n2)cc1C (stereo not given) | 7.8 µM | inactive | – | – | –
9 | CCCCNc1cc(Cl)nc(SC(C(=O)O)c2cccc3ccccc23)n1 (stereo not given) | – | inactive | inactive | inactive | –
10 | O=C(O)C(Sc1nc(Cl)cc(NCCc2ccccc2)n1)c1cccc2ccccc12 (stereo not given) | 10.8 µM | inactive | – | – | –
11 | CC(C)CCNc1cc(Cl)nc(SC(C(=O)O)c2cccc3ccccc23)n1 (stereo not given) | 8.9 µM | inactive | – | – | –
12 | O=C(O)C(Sc1nc(Cl)cc(Nc2ccc3c(c2)CCC3)n1)c1cccc2ccccc12 (stereo not given) | 6.8 µM | inactive | – | – | –
13 | CCc1ccc(CCOc2ccc(CC3SC(=O)NC3=O)cc2)nc1 (stereo not given) | – | inactive | – | – | –
14 | Cc1cccc(Nc2cc(Cl)nc(SC(C(=O)O)c3cccc4ccccc34)n2)c1C (stereo not given) | 6.2 µM | inactive | – | – | inactive
15 | O=C(O)C(Sc1nc(Cl)cc(NCCCc2ccccc2)n1)c1cccc2ccccc12 (stereo not given) | 8.9 µM | inactive | – | – | –
